In assay [1] the target is T1, endogenous CETP from human serum (Homo sapiens, UniProt P11597).
T1 construct: yielding a concentration of approximately 15 nM endogenous CETP in the assay; from tissue; host or cells: human serum
T1 sequence (P11597 18-493): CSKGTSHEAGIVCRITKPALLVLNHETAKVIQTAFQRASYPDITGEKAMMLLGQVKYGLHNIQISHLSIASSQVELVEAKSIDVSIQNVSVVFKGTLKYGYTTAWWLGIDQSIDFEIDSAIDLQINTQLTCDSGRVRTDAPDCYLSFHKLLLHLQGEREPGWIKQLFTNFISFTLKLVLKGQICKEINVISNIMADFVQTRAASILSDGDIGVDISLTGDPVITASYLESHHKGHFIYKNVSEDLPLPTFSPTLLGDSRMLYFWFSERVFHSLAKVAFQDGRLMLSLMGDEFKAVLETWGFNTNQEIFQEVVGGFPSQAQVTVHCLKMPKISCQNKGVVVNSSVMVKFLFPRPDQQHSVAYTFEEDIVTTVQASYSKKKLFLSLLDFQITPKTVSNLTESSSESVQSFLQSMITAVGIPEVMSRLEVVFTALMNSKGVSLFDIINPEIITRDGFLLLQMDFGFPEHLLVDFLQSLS
As to the kind of experiment: RTA assay using endogenous CETP from serum (95% RTA). The format is biochemical. Particulars: 95% human serum. On the procedure: (§1) In Vitro Radioactive Assays of CETP-Catalyzed CE and TG Transfer (RTA Assay)
(§2) Reagents and sources are: [3H] cholesteryl oleate (GE #TRK.886), [3H] Triolein (Perkin-Elmer NET-431), Butylated hydroxyl toluene (Aldrich, #D4740-4), DOPC (Sigma, #P6354), Sodium Bromide (Fisher scientific #S255-500), PEG 8000 (Fisher, #BP233-1), and human HDL (Intracel Corp #RP-036).
(§3) An in vitro assay for determining IC50's to identify compounds that inhibit CETP transfer activity is performed based on a modification of a published method (Morton and Zilversmit, (1981) A plasma inhibitor of triglyceride and cholesteryl ester transfer activities, J. Biol. Chem. 256(23), 11992-11995). The ability of inhibitors to alter CETP activity is performed using two different assays: one using recombinant CETP and one using an endogenous plasma source of CETP. Both assays measure the transfer of [3H] cholesteryl oleate or [3H] triolein from exogenous LDL to HDL.
(§4) Radiolabeled donor particles are generated by first combining 100 μl of 200 μM butylated hydroxyl toluene in CHCl3, 216 μL of 21.57 mM DOPC in EtOH, and either 500 μCi [3H]-triolein (Perkin Elmer #NET-431) or 500 μCi [3H]-cholesteryl oleate (GE #TRK886) in a glass tube. Reagents are mixed, dried under nitrogen, and then resuspended in 2 mL of 50 mM Tris, 27 μM EDTA at pH 7.4. After a brief vortex, the solution is sonicated until clear and mixed with 20 mL of fresh human serum. The mixture is incubated overnight at 37° C. The [3H] labeled LDL substrate is separated at 1.063 g/ml density by sequential ultracentrifugal flotation in NaBr according to the method of Havel, Eder, et al., 1955, and Chapman, Goldstein, et al., 1981. Once isolated the particles are dialyzed 3× in CETP buffer (50 mM Tris, pH 7.4, 100 mM NaCl, 1 mM EDTA). Human HDL is purchased from Intracel and used as the acceptor particles.
(§5) Transfer assays are performed in a 96-well v-bottom polypropylene plate. For the RTA using recombinant CETP (2% RTA), an assay cocktail is prepared with the final concentrations 128 μg/mL HDL, 20 nM rCETP, 2% human serum, and 1×CETP buffer. 1 μL of each test compound diluted in DMSO is added to 47 μL of assay cocktail per well and incubated at 37° C. for 1 hour. To initiate the transfer reaction, 2 μL radiolabeled LDL is added. After an additional 60 min of incubation at 37° C., the transfer action is terminated by precipitation of LDL with an equal volume of 20% W/V PEG 8000. The plates are centrifuged at 2000 rpm for 30 minutes at 4° C. A 40 μL aliquot of the HDL-containing supernatant is transferred to a Packard Optiplate™ with 200 μL of MicroScint™ 20. After mixing, plates are counted by liquid scintillation. Counts present in the supernatant for blanks (wells containing only HDL acceptor, CETP buffer and DMSO) are subtracted from those containing test compounds and used to correct for non-specific transfer.
For the transfer assay using endogenous CETP from serum (95% RTA), the same procedure is used except that human serum is added such that a final concentration of serum of 95% of the total assay volume is achieved, yielding a concentration of approximately 15 nM endogenous CETP in the assay. This is then combined with HDL and CETP buffer and the reaction proceeds as above and is terminated as described.
(§6) Comparison of the counts of samples with inhibitors to an uninhibited (DMSO only) positive control yield a percent inhibition. A plot of percent inhibition vs. log of inhibitor concentration, fit to a Sigmoidal 4 parameter equation is used to calculate IC50.

A further assay deals with T2, recombinant CETP (Homo sapiens, UniProt P11597).
T2 sequence (P11597 18-493): T1 sequence (P11597 18-493)
As to the kind of experiment: RTA assay using recombinant CETP (2% RTA). Particulars: 2% human serum. It is filed as biochemical. How it is done: as §1, §2, §3, §4, §5, §6

Structures are written as SMILES. pIC50: −log10 of the molar value.

This is an account of results in patent US9688630B2, “3,3′-disubstituted indolines as inhibitors of cholesterol ester transfer protein” (Merck Sharp & Dohme Corp., priority 2013, dated 2017).

Regarding `CCOc1cc(C2(Cc3cccc(OC)c3)CN(C[C@@H](O)C(F)(F)F)c3ccccc32)ccn1` (stereo partly shown) [Example 23], the figures for the negative logarithm of the IC50 (pIC50) (in assay [1]; on recombinant CETP) were 6.17 and 6.60, respectively.

Take `O[C@H](CN1CC(Cc2cccc(OC(F)(F)F)c2)(c2ccc(F)c(Cl)c2)c2ccccc21)C(F)(F)F` (stereo partly shown) [Example 19]: the pIC50 (in general, the negative decadic logarithm of the IC50, by convention in mol/L) in assay [1] was 5.43; on recombinant CETP it was 6.05.

For the compound `O=C(O)c1ccc(-c2cccc(C3(Cc4cccc(OC(F)(F)F)c4)CN(C[C@@H](O)C(F)(F)F)c4ccccc43)c2)cc1` (mixture of isomers) [Example 26, 3′-(1-((R)-3,3,3-trifluoro-2-hydroxypropyl)-3-(3-(trifluoromethoxy)-benzyl)indolin-3-yl)-[1,1′-biphenyl]-4-carboxylic acid], the figures for the negative-log IC50 (pIC50) (in assay [1]; on recombinant CETP) were 5.41 and 5.87, respectively.

On to `OC1CCN(c2cccc(C3(Cc4cccc(OC(F)(F)F)c4)CN(C[C@@H](O)C(F)(F)F)c4ccccc43)c2)C1` (stereo partly shown) [Example 44], for which the values for the negative-log IC50 (pIC50) (in assay [1]; at recombinant CETP) were 5.69 and 6.31, respectively.

In the case of `COc1ccc(CC2(c3cccc(OC(F)(F)F)c3)CN(C[C@@H](O)C(F)(F)F)c3ccccc32)cc1` (stereo partly shown) [Example 5], the pIC50 is 5.01 in assay [1] and 5.67 at recombinant CETP.

For `CO[C@@H]1CCN(c2cccc(C3(Cc4cccc(OC(F)(F)F)c4)CN(C[C@@H](O)C(F)(F)F)c4ccccc43)c2)C1` (stereo partly shown) [Example 36], the pIC50 in assay [1] was 6.11; on recombinant CETP it was 6.94.

In the case of `O[C@H](CN1CC(Cc2cccc(OC(F)(F)F)c2)(c2cccc(N3CC[C@@H](F)C3)c2)c2ccccc21)C(F)(F)F` (stereo partly shown) [Example 42], the pIC50 in assay [1] was 6.12; on recombinant CETP it was 7.40.

Turning to `CO[C@H]1CCN(c2cccc(CC3(c4cccc(OC(F)(F)F)c4)CN(C[C@@H](O)C(F)(F)F)c4ccccc43)c2)C1` (stereo partly shown) [Example 49], the negative logarithm of the IC50 (pIC50) in assay [1] was 5.68; on recombinant CETP, 6.71.

As for `O[C@H](CN1CC(Cc2cccc(N3CC(F)(F)C3)c2)(c2cccc(OC(F)(F)F)c2)c2ccccc21)C(F)(F)F` (stereo partly drawn) [Example 48, (2R)-3-(3-(3-(3,3-difluoroazetidin-1-yl)benzyl)-3-(3-(trifluoromethoxy)phenyl)indolin-1-yl)-1,1,1-trifluoropropan-2-ol], the results for the pIC50 (in assay [1]; on recombinant CETP) were 6.61 and 7.08, respectively.

Take `O[C@H](CN1CC(Cc2cccc(OC(F)(F)F)c2)(c2cc(F)cc(C(F)(F)F)c2)c2ccccc21)C(F)(F)F` (stereo partly shown) [Example 13]: the pIC50 in assay [1] was 5.60; on recombinant CETP, 6.99.

As to `CC1(O)CN(c2cccc(CC3(c4cccc(OC(F)(F)F)c4)CN(C[C@@H](O)C(F)(F)F)c4ccccc43)c2)C1` (stereo partly shown) [Example 53], the negative-log IC50 (pIC50) in assay [1] is 5.09; at recombinant CETP, 6.17.

Take `O[C@H](CN1CC(Cc2cccc(OC(F)(F)F)c2)(c2cccc(N3CCC(F)(F)CC3)c2)c2ccccc21)C(F)(F)F` (stereo partly shown) [Example 39]: the figures for the negative logarithm of the IC50 (pIC50) (in assay [1]; at recombinant CETP) were 5.97 and 6.79, respectively.

As for `O[C@H](CN1CC(Cc2cccc(OC(F)(F)F)c2)(c2ccnc(N3CCOCC3)c2)c2ccccc21)C(F)(F)F` (stereo partly shown) [Example 24], the values for the pIC50 (in assay [1]; at recombinant CETP) were 5.51 and 6.61, respectively.

As to `O[C@H](CN1CC(Cc2cccc(OC(F)(F)F)c2)(c2ccc(F)c(C(F)(F)F)c2)c2ccccc21)C(F)(F)F` (stereo partly shown) [Example 14], the results for the pIC50 (in assay [1]; on recombinant CETP) were 6.16 and 6.56, respectively.

In the case of `O[C@H](CN1CC(Cc2cccc(OC(F)(F)F)c2)(c2cccc(N3CC[C@H](F)C3)c2)c2ccccc21)C(F)(F)F` (stereo partly shown) [Example 41], the figures for the pIC50 (in assay [1]; on recombinant CETP) were 6.30 and 7.14, respectively.

For `C[C@@H]1CN(c2cccc(CC3(c4cccc(OC(F)(F)F)c4)CN(C[C@@H](O)C(F)(F)F)c4ccccc43)c2)CCO1` (stereo partly shown) [Example 51], the pIC50 was 5.76 in assay [1] and 5.79 on recombinant CETP.

Turning to `C[C@@H]1CN(c2cccc(C3(Cc4cccc(OC(F)(F)F)c4)CN(C[C@@H](O)C(F)(F)F)c4ccccc43)c2)CCO1` (stereo partly shown) [Example 43], the pIC50 in assay [1] was 6.03; at recombinant CETP it was 7.01.

As for `O[C@H](CN1CC(Cc2cccc(OC(F)(F)F)c2)(c2cccc(N3CCOCC3)c2)c2ccccc21)C(F)(F)F` (mixture of isomers) [Example 31, (2R)-1,1,1-trifluoro-3-(3-(3-morpholinophenyl)-3-(3-(trifluoromethoxy)benzyl)indolin-1-yl)propan-2-ol], the figures for the pIC50 (in assay [1]; at recombinant CETP) were 6.19 and 6.84, respectively.

For `O[C@H](CN1CC(Cc2cccc(OC(F)(F)F)c2)(c2cccc(OC(F)(F)C(F)F)c2)c2ccccc21)C(F)(F)F` (stereo partly shown) [Example 8], the pIC50 in assay [1] is 7.03; at recombinant CETP it was 7.60.

For the compound `O[C@H](CN1CC(Cc2ccccc2OC(F)(F)F)(c2cccc(OC(F)(F)F)c2)c2ccccc21)C(F)(F)F` (stereo partly shown) [Example 9], the pIC50 in assay [1] is 5.47; on recombinant CETP, 5.92.

Turning to `N#Cc1cccc(CC2(c3cccc(OC(F)(F)F)c3)CN(C[C@@H](O)C(F)(F)F)c3ccccc32)c1` (stereo partly drawn) [Example 45, 3-((1-((R)-3,3,3-trifluoro-2-hydroxypropyl)-3-(3-(trifluoromethoxy)phenyl)indolin-3-yl)methyl)benzonitrile], the negative-log IC50 (pIC50) in assay [1] was 6.04; at recombinant CETP, 6.77.

Turning to `O[C@H](CN1CC(Cc2cccc(OC(F)(F)F)c2)(c2cccc(N[C@@H]3CCOC3)c2)c2ccccc21)C(F)(F)F` (mixture of isomers) [Example 32], the pIC50 in assay [1] was 5.85; at recombinant CETP, 6.60.

`O[C@H](CN1CC(Cc2cccc(N3CCC(F)(F)CC3)c2)(c2cccc(OC(F)(F)F)c2)c2ccccc21)C(F)(F)F` (stereo partly shown) [Example 56]: the pIC50 in assay [1] is 5.16; at recombinant CETP, 6.38.

With `Cc1csc(CC2(c3cccc(OC(F)(F)F)c3)CN(C[C@@H](O)C(F)(F)F)c3c(F)cccc32)n1` (stereo partly shown) [Example 16], the negative logarithm of the IC50 (pIC50) in assay [1] was 5.70; at recombinant CETP, 6.53.

For the compound `CC1(O)CN(c2cccc(C3(Cc4cccc(OC(F)(F)F)c4)CN(C[C@@H](O)C(F)(F)F)c4ccccc43)c2)C1` (stereo partly shown) [Example 33], the pIC50 in assay [1] was 5.36; on recombinant CETP, 5.91.

As for `O[C@H](CN1CC(Cc2cccc(C(F)(F)F)c2)(c2cccc(OC(F)(F)F)c2)c2cccc(F)c21)C(F)(F)F` (stereo partly shown) [Example 17], the negative-log IC50 (pIC50) in assay [1] was 6.15; at recombinant CETP it was 7.18.

Consider `O[C@H](CN1CC(Cc2cccc(N3CC[C@H](F)C3)c2)(c2cccc(OC(F)(F)F)c2)c2ccccc21)C(F)(F)F` (stereo partly shown) [Example 57], for which the pIC50 in assay [1] is 5.43; on recombinant CETP, 6.46.

Take `C[C@H]1CN(c2cccc(C3(Cc4cccc(OC(F)(F)F)c4)CN(C[C@@H](O)C(F)(F)F)c4ccccc43)c2)CCO1` (stereo partly shown) [Example 38]: the values for the pIC50 (in assay [1]; at recombinant CETP) were 6.17 and 6.93, respectively.

For `O[C@H](CN1CC(Cc2cccc(N3CC[C@@H](F)C3)c2)(c2cccc(OC(F)(F)F)c2)c2ccccc21)C(F)(F)F` (stereo partly shown) [Example 58], the results for the negative logarithm of the IC50 (pIC50) (in assay [1]; at recombinant CETP) were 5.85 and 6.77, respectively.
